Assays:
Assay type in all cases: in vivo
Avena fatua (AVEFA) [1] = test: Example B pre-emergence herbicidal activity; details: 312 h, rate 250 g/ha, evaluated after 13 days, read-out: Pre-Emergence Activity AVEFA (100=total damage to plant; 0=no damage to plant)
Experimental: (§1) Seeds of a variety of test species were sown in standard soil in pots. After cultivation for one day (pre-emergence) or after 8 days cultivation (post-emergence) under controlled conditions in a glasshouse (at 24/16° C., day/night; 14 hours light; 65% humidity), the plants were sprayed with an aqueous spray solution derived from the formulation of the technical active ingredient in acetone/water (50:50) solution containing 0.5% Tween 20 (polyoxyethelyene sorbitan monolaurate, CAS RN 9005-64-5).
(§2) The test plants were then grown in a glasshouse under controlled conditions in a glasshouse (at 24/16° C., day/night; 14 hours light; 65% humidity) and watered twice daily. After 13 days for pre and post-emergence, the test was evaluated (100=total damage to plant; 0=no damage to plant).
(§3) Alopecurus myosuroides (ALOMY), Avena fatua (AVEFA), Setaria faberi (SETFA), Echinochloa crus-galli (ECHCG), Solanum nigrum (SOLNI) and Amaranthus retoflexus (AMARE)

[2] = test system: Amaranthus retoflexus (AMARE); test: Example B pre-emergence herbicidal activity; details: Amaranthus retroflexus, 312 h, rate 250 g/ha, evaluated after 13 days, read-out: Pre-Emergence Activity AMARE (100=total damage to plant; 0=no damage to plant)
Experimental: as §1, §2, §3

[3] = test system: Echinochloa crus-galli (ECHCG); test: Example B pre-emergence herbicidal activity; details: 312 h, rate 250 g/ha, evaluated after 13 days, read-out: Pre-Emergence Activity ECHCG (100=total damage to plant; 0=no damage to plant)
Experimental: as §1, §2, §3

[4] = test system: Alopecurus myosuroides (ALOMY); test: Example B pre-emergence herbicidal activity; details: 312 h, rate 250 g/ha, evaluated after 13 days, read-out: Pre-Emergence Activity ALOMY (100=total damage to plant; 0=no damage to plant)
Experimental: as §1, §2, §3

Setaria faberi (SETFA) [5] = test: Example B pre-emergence herbicidal activity; details: 312 h, rate 250 g/ha, evaluated after 13 days, read-out: Pre-Emergence Activity SETFA (100=total damage to plant; 0=no damage to plant)
Experimental: as §1, §2, §3

Avena fatua (AVEFA) [6] = test: Example B post-emergence herbicidal activity; details: 312 h, rate 250 g/ha, evaluated after 13 days, read-out: Post-emergence activity AVEFA (100=total damage to plant; 0=no damage to plant)
How it was run: (§4)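 Plants were sprayed 1 day after sowing (pre-emergence) or after 8 days (post-emergence) with active ingredient in acetone/water 50:50 plus 0.5% Tween 20. They were grown in a glasshouse at 24/16 °C, 14 h light and 65% humidity. Damage was scored visually 0–100 after 13 days.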

[7] = test system: Amaranthus retoflexus (AMARE); test: Example B post-emergence herbicidal activity; details: Amaranthus retroflexus, 312 h, rate 250 g/ha, evaluated after 13 days, read-out: Post-emergence activity AMARE (100=total damage to plant; 0=no damage to plant)
How it was run: as §4

[8] = test system: Echinochloa crus-galli (ECHCG); test: Example B post-emergence herbicidal activity; details: 312 h, rate 250 g/ha, evaluated after 13 days, read-out: Post-emergence activity ECHCG (100=total damage to plant; 0=no damage to plant)
How it was run: as §4

[9] = test system: Alopecurus myosuroides (ALOMY); test: Example B post-emergence herbicidal activity; details: 312 h, rate 250 g/ha, evaluated after 13 days, read-out: Post-emergence activity ALOMY (100=total damage to plant; 0=no damage to plant)
How it was run: as §4

Setaria faberi (SETFA) [10] = test: Example B post-emergence herbicidal activity; details: 312 h, rate 250 g/ha, evaluated after 13 days, read-out: Post-emergence activity SETFA (100=total damage to plant; 0=no damage to plant)
How it was run: as §4

Compound: CCc1sc(-c2ccc(Br)cc2C)nc1C1C(=O)[C@@H]2CC[C@@H](C2)C1=O (some centres unmarked) [Compound T38]
- pest or weed control at 250 g/ha (Avena fatua (AVEFA) [1]): 50%
- pest or weed control at 250 g/ha [2]: 0%
- pest or weed control at 250 g/ha [3]: 70%
- pest or weed control at 250 g/ha [4]: 60%
- pest or weed control at 250 g/ha (Setaria faberi (SETFA) [5]): 100%
- pest or weed control at 250 g/ha (Avena fatua (AVEFA) [6]): 100%
- pest or weed control at 250 g/ha [7]: 0%
- pest or weed control at 250 g/ha [8]: 100%
- pest or weed control at 250 g/ha [9]: 100%
- pest or weed control at 250 g/ha (Setaria faberi (SETFA) [10]): 100%

Compound: Cc1sc(-c2ccc(OC(F)F)cc2Cl)nc1C1C(=O)[C@@H]2CC[C@@H](C2)C1=O (some centres unmarked) [Compound T84]
- pest or weed control at 250 g/ha (Avena fatua (AVEFA) [1]): 40%
- pest or weed control at 250 g/ha [2]: 0%
- pest or weed control at 250 g/ha [3]: 100%
- pest or weed control at 250 g/ha [4]: 70%
- pest or weed control at 250 g/ha (Setaria faberi (SETFA) [5]): 100%
- pest or weed control at 250 g/ha (Avena fatua (AVEFA) [6]): 70%
- pest or weed control at 250 g/ha [7]: 40%
- pest or weed control at 250 g/ha [8]: 100%
- pest or weed control at 250 g/ha [9]: 90%
- pest or weed control at 250 g/ha (Setaria faberi (SETFA) [10]): 100%

Compound: CCc1sc(-c2ccc(F)cc2F)nc1C1C(=O)[C@@H]2CC[C@@H](C2)C1=O (some centres unmarked) [Compound T104]
- pest or weed control at 250 g/ha (Avena fatua (AVEFA) [1]): 20%
- pest or weed control at 250 g/ha [2]: 0%
- pest or weed control at 250 g/ha [3]: 100%
- pest or weed control at 250 g/ha [4]: 70%
- pest or weed control at 250 g/ha (Setaria faberi (SETFA) [5]): 50%
- pest or weed control at 250 g/ha (Avena fatua (AVEFA) [6]): 90%
- pest or weed control at 250 g/ha [7]: 0%
- pest or weed control at 250 g/ha [8]: 100%
- pest or weed control at 250 g/ha [9]: 100%
- pest or weed control at 250 g/ha (Setaria faberi (SETFA) [10]): 100%

Compound: O=C1C(c2nc(-c3ccc(Cl)cc3)sc2Br)C(=O)[C@H]2CC[C@@H]1C2 (some centres unmarked) [Compound T49]
- pest or weed control at 250 g/ha (Avena fatua (AVEFA) [1]): 100%
- pest or weed control at 250 g/ha [2]: 0%
- pest or weed control at 250 g/ha [3]: 100%
- pest or weed control at 250 g/ha [4]: 100%
- pest or weed control at 250 g/ha (Setaria faberi (SETFA) [5]): 100%
- pest or weed control at 250 g/ha (Avena fatua (AVEFA) [6]): 90%
- pest or weed control at 250 g/ha [7]: 0%
- pest or weed control at 250 g/ha [8]: 100%
- pest or weed control at 250 g/ha [9]: 90%
- pest or weed control at 250 g/ha (Setaria faberi (SETFA) [10]): 100%

Compound: CCc1sc(-c2ccc(Cl)c(F)c2)nc1C1C(=O)[C@@H]2CC[C@@H](C2)C1=O (some centres unmarked) [Compound T27]
- pest or weed control at 250 g/ha (Avena fatua (AVEFA) [1]): 90%
- pest or weed control at 250 g/ha [2]: 0%
- pest or weed control at 250 g/ha [3]: 100%
- pest or weed control at 250 g/ha [4]: 90%
- pest or weed control at 250 g/ha (Setaria faberi (SETFA) [5]): 100%
- pest or weed control at 250 g/ha (Avena fatua (AVEFA) [6]): 100%
- pest or weed control at 250 g/ha [7]: 0%
- pest or weed control at 250 g/ha [8]: 100%
- pest or weed control at 250 g/ha [9]: 100%
- pest or weed control at 250 g/ha (Setaria faberi (SETFA) [10]): 100%

Compound: CC(=O)OC1=C(c2nc(-c3ccc(Cl)cc3)ncc2C)C(=O)[C@@H]2C[C@H]1C2(C)C [Compound P19]
- pest or weed control at 250 g/ha (Avena fatua (AVEFA) [1]): 0%
- pest or weed control at 250 g/ha [2]: 0%
- pest or weed control at 250 g/ha [3]: 20%
- pest or weed control at 250 g/ha [4]: 10%
- pest or weed control at 250 g/ha (Setaria faberi (SETFA) [5]): 90%
- pest or weed control at 250 g/ha (Avena fatua (AVEFA) [6]): 0%
- pest or weed control at 250 g/ha [7]: 0%
- pest or weed control at 250 g/ha [8]: 90%
- pest or weed control at 250 g/ha [9]: 20%
- pest or weed control at 250 g/ha (Setaria faberi (SETFA) [10]): 90%

Compound: CC(=O)OC1=C(c2nc(-c3ccc(Br)cn3)sc2C)C(=O)[C@H]2CC[C@@H]1C2 [Compound P6]
- pest or weed control at 250 g/ha (Avena fatua (AVEFA) [1]): 0%
- pest or weed control at 250 g/ha [2]: 0%
- pest or weed control at 250 g/ha [3]: 20%
- pest or weed control at 250 g/ha [4]: 20%
- pest or weed control at 250 g/ha (Setaria faberi (SETFA) [5]): 100%
- pest or weed control at 250 g/ha (Avena fatua (AVEFA) [6]): 80%
- pest or weed control at 250 g/ha [7]: 0%
- pest or weed control at 250 g/ha [8]: 100%
- pest or weed control at 250 g/ha [9]: 90%
- pest or weed control at 250 g/ha (Setaria faberi (SETFA) [10]): 100%

Compound: CCc1sc(-c2ccc(Br)cc2)nc1C1C(=O)[C@@H]2CC[C@@H](C2)C1=O (some centres unmarked) [Compound T28]
- pest or weed control at 250 g/ha (Avena fatua (AVEFA) [1]): 90%
- pest or weed control at 250 g/ha [2]: 0%
- pest or weed control at 250 g/ha [3]: 100%
- pest or weed control at 250 g/ha [4]: 80%
- pest or weed control at 250 g/ha (Setaria faberi (SETFA) [5]): 100%
- pest or weed control at 250 g/ha (Avena fatua (AVEFA) [6]): 100%
- pest or weed control at 250 g/ha [7]: 0%
- pest or weed control at 250 g/ha [8]: 100%
- pest or weed control at 250 g/ha [9]: 100%
- pest or weed control at 250 g/ha (Setaria faberi (SETFA) [10]): 100%
